According to US20210196673A1 (priority 2018, published 2021):
Converted amounts (≈) assume the structure as drawn. Read-outs that look alike come from different tables or passages of the source.

How the values were obtained:
[1] = tested on: Vero cells; assay: Primary CPE assay in Vero cells (cytotoxicity, CC50); format: cell-based
[2] = tested on: SARS-CoV-2; assay: Secondary VYR (virus yield reduction) assay in Caco-2 cells; format: cell-based
Method: The secondary VYR assay in Caco-2 cells: Near-confluent cell culture monolayers of Caco-2 cells were prepared in 96-well disposable microplates the day before testing. Cells were maintained in MEM supplemented with 10% FBS. The same medium was used for antiviral assays and FBS was reduced to 2%, supplemented with 50-μg/ml gentamicin. EGCG was dissolved in serum-free MEM in a series of 2×dilutions from 100 μg/ml to 0.78 μg/ml. The EGCG diliutions were mixed and incubated with SARS-CoV-2 at 200 CCID50 (50% cell culture infectious dose) in 0.1 ml volume for 1 h prior to adding to the cell culture for 1 h absorption. Following absorption, the unabsorbed SARS-CoV-2 along with medium/EGCG was removed and fresh MEM was added to the cell culture for viral yield detection in comparison to untreated infection control. Five microwells were used per dilution: three for infected cultures and two for uninfected toxicity cultures. Controls for the experiment consist of six microwells that were infected and not treated (virus controls) and six that were untreated and uninfected (cell controls) on every plate. Medium devoid of virus was placed in toxicity control wells and cell control wells. Plates were incubated at 37° C. with 5% CO2 for 72 hours. A sample of supernatant was taken from each infected well (three replicate wells were pooled) and tested immediately. To evaluate toxicity, the plates were stained with 0.011% neutral red dye for approximately two hours at 37° C. in a 5% CO2 incubator. The neutral red medium was removed by complete aspiration, and the cells were rinsed 1× with phosphate buffered solution (PBS) to remove residual dye. The PBS is completely removed, and the incorporated neutral red was eluted with 50% Sorensen's citrate buffer/50% ethanol for at least 30 minutes. As larger the number of viable cells present in the wells, when the neutral red dye penetrated into the living cells, the more intense the red color appeared. The dye content in each well was quantified using a spectrophotometer at 540 nm wavelength. The dye content in each set of wells was converted to a percentage of dye present in untreated control wells using a Microsoft Excel computer-based spreadsheet and normalized based on the virus control. The 50% cytotoxic (CC50, cell-inhibitory) concentrations were then calculated by regression analysis.
The VYR test indicates how much EGCG inhibits virus entry and replication. Virus yielded in the presence of EGCG was titrated and compared to virus titers from the untreated virus controls. Titration of the viral samples (collected as described in the paragraph above) was performed by endpoint dilution (Reed-Muench method). Serial 1/10 dilutions of virus were made and plated into 4 replicate wells containing fresh cell monolayers of Vero 76 cells. Plates were then incubated, and cells were scored for the presence or absence of virus after distinct CPE was observed. The TCID50 values were calculated using the Reed-Muench method. The 90% (one log10) effective concentration (EC90) was calculated by regression analysis by plotting the log10 of the inhibitor concentration versus log10 of virus produced at each concentration. The quotient of CC50 divided by EC90 gave the selectivity index (SI) value. Compounds showing SI values ≥10 are considered active.

[3] = Stability of powder and liquid forms; format: physicochemical; settings: for stability of powder form on storage: 5° C.
[4] = tested on: Caco-2 cells
[5] = target: transmembrane protease serine 2 (TMPRSS2) (Homo sapiens, UniProt O15393); settings: in vitro study; cited from earlier work
transmembrane protease serine 2 (TMPRSS2), sequence (O15393 whole entry): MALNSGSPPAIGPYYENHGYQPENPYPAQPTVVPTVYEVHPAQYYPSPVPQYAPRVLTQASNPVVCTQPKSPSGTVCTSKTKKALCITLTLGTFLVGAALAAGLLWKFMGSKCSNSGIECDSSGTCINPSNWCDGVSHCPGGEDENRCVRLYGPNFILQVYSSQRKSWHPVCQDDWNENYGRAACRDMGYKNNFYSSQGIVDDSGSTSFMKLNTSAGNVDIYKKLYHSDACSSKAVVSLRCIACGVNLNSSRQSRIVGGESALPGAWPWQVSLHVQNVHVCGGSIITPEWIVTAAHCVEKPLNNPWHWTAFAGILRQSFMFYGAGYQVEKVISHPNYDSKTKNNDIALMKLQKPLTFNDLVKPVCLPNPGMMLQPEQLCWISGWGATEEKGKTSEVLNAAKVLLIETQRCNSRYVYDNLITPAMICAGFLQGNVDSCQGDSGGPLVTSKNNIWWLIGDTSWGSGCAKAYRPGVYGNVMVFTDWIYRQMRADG

[6] = target: SARS-CoV 3C-like protease (3CLPro) (Severe acute respiratory syndrome coronavirus, UniProt P0C6X7); settings: cited from earlier work
[7] = tested on: influenza virus; settings: cited from earlier work
[8] = tested on: SARS-CoV-2; assay: Primary CPE assay in Vero cells (antiviral)
[9] = target: SARS-CoV nucleocapsid (N) protein (Severe acute respiratory syndrome coronavirus, UniProt P59595); settings: cited from earlier work
SARS-CoV nucleocapsid (N) protein, sequence (P59595 whole entry, looked up): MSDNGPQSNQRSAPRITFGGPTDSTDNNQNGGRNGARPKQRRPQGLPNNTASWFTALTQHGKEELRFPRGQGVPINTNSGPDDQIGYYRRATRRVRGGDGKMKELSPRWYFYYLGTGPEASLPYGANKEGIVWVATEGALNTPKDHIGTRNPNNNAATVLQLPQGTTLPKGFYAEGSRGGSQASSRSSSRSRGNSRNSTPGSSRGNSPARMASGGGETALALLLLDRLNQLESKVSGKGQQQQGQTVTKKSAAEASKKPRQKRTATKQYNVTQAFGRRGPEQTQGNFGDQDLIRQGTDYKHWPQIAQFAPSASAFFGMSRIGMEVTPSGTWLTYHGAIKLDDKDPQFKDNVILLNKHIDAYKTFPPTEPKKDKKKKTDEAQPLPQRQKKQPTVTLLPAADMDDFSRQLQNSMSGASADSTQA

[10] = tested on: H1N1 virus; format: cell-based, influenza A virus
[11] = tested on: H1N1 virus; format: cell-based, influenza A virus; remark: listed apart in the source
[12] = tested on: H1N1 virus; format: cell-based, influenza A virus; remark: listed apart in the source
[13] = tested on: MDCK cells; assay: Cell viability, MTT assay; format: cell-based; settings: 1 hour incubation
Method: Cell Viability: This experiment tested if EC16 formulations were associated with cytotoxicity in MDCK cells. MDCK cells were cultured in a 96 well plate until confluent. MEM serum free medium, MEM medium with 10% carrier and 20% carrier (carrier controls), or MEM medium containing 0.1% EC16 and 10% or 20% carrier was added to the wells followed by a 1 hour incubation at 35° C. with 5% CO2. The medium was then changed to 200 μl fresh MEM serum free medium with 0.2 μg/ml trypsin in each well and incubated overnight under the same condition. The plate was removed from the cell culture incubator and an MTT assay was performed according to a method described previously (Yamamoto, T., et al., Anticancer Research, 24:3065-3073 (2004)).

[14] = tested on: H1N1 virus
[15] = tested on: H1N1 virus; remark: listed apart in the source
[16] = EGCG 50 μg/ml (0.005%), Caco-2 cells
[17] = EGCG 100 μg/ml (0.01%), Caco-2 cells

O=C(O[C@@H]1Cc2c(O)cc(O)cc2O[C@@H]1c1cc(O)c(O)c(O)c1)c1cc(O)c(O)c(O)c1 [EGCG, (−)-epigallocatechin-3-gallate]
CC50 (NR) ([1]; neutral red (NR) readout): 2.3 µg/mL (≈ 5.02 µM)
CC50 (VIS) ([1]; visual (VIS) readout): 3.2 µg/mL (≈ 6.98 µM)
concentration that inhibited 90% of viral yield (EC90) ([2]; Caco-2 cells, value of b285): 28 µg/mL
reduction in virus titer [2, 16]: 1.8 log 10
reduction of viral yield [2, 16]: 98.41%
reduction in virus titer [2, 17]: > 3.6 log 10
reduction of viral yield [2, 17]: > 99.975%
antiviral activity ([2]; EGCG at or lower than 25 μg/ml (0.0025%), Caco-2 cells): the activity was not detected
Viral titer of EGCG treated TCID50 values ([2]; concentration 0.78 μg/ml): 5.3 lon10
Viral titer of EGCG treated TCID50 values ([2]; concentration 1.56 μg/ml): 5.0 lon10
Viral titer of EGCG treated TCID50 values ([2]; concentration 3.13 μg/ml): 5.0 lon10
Viral titer of EGCG treated TCID50 values ([2]; concentration 6.25 μg/ml): 5.5 lon10
Viral titer of EGCG treated TCID50 values ([2]; concentration 12.5 μg/ml): 5.3 lon10
Viral titer of EGCG treated TCID50 values ([2]; concentration 25 μg/ml): 5.0 lon10
Viral titer of EGCG treated TCID50 values ([2]; concentration 50 μg/ml): 3.5 lon10
Viral titer of EGCG treated TCID50 values ([2]; concentration 100 μg/ml): <1.7 lon10
SIgo (CC50/EC90) ([2]; selectivity index): > 23
stability in aqueous solution ([3]; aqueous solution): not stable
stability in dry powder form [3]: stable
stability of powder form on storage [3]: stable at 5 °C for two years
CC50 (cytotoxicity) ([4]; Caco-2 cells, neutral red, value of b285): > 100 µg/mL
CC50 ([4]; Neutral Red (Toxicity) assay, value of b289): > 100 µg/mL
inhibition of TMPRSS2 [5]: inhibited TMPRSS2
inhibition of 3C^pro activity [6]: 80%
inhibition of SARS-CoV 3C-like protease [6]: significantly inhibited
effect of direct contact with influenza virus ([7]; direct contact of EGCG with virus, cell culture): inactivation of viral infectivity
anti-viral activity after pre-incubation of cells ([7]; pre-incubation of cells with EGCG, no contact with the virus): does not show anti-viral activity
EC50, inhibition of CPE (NR) ([8]; neutral red (NR) readout): 0.27 µg/mL
EC50, inhibition of CPE (VIS) ([8]; visual (VIS) readout): 0.23 µg/mL

O=C(O[C@@H]1Cc2c(O)cc(O)cc2O[C@H]1c1cc(O)c(O)c(O)c1)c1cc(O)c(O)c(O)c1 [GCG, gallocatechin gallate]
inhibitory effect against SARS-CoV nucleocapsid (N) protein [9]: remarkable inhibitory effect
inhibition of SARS-CoV 3C-like protease [6]: significantly inhibited

(−)-epigallocatechin-3-gallate-palmitate [EC16]
stability in dry powder form [3]: stable
stability in proper liquid formulations ([3]; liquid formulations): stable
stability of powder form on storage [3]: stable at 5 °C for two years
H1N1 infectivity, % of control ([10]; 0.01% EC16 in 10% carrier, 1 minute contact, n=3): 20.5%±17.1
H1N1 infectivity, % of control ([10]; 0.01% EC16 in 20% carrier, separate experiments): 7.3%±9.2
H1N1 infectivity, % of control ([10]; 0.1% EC16 in 10% carrier, 1 minute contact, first three replicates): 6.1%±3.0
H1N1 infectivity, % of control ([10]; 0.1% EC16 in 10% carrier, additional three replicate experiments): 3.8%±1.5
H1N1 infectivity, % of control ([10]; 0.1% EC16 in 10% carrier, overall mean (n=6)): 5.0%±2.4
H1N1 infectivity, % of control ([10]; 0.1% EC16 in 20% carrier, 1 minute contact): 2.4%±1.1
cells protected from H1N1 infection ([11]; 0.05% EC16, washed and 1 hour without EC16): 90%
block of H1N1 infection ([11]; 0.1% EC16, 2 hours after first application, washed and 1 hour without EC16): almost completely blocked
viral TCID50, % of control [12]: 15.4%±15.2
cell viability (MTT) versus MEM control ([13]; 0.1% EC16 in 10% carrier): not statistically different from the MEM control
cell viability (MTT) versus MEM control ([13]; 0.1% EC16 in 20% carrier): not statistically different from the MEM control
viral titer (viability), % of control ([14]; 0.01% EC16 in 10% carrier, 1 hour pre-treatment, n=4): 100%
infectivity, % of control ([14]; 0.01% EC16 in 20% carrier, 1 hour pre-treatment): 2.3%±0.9
infectivity, % of control ([14]; 0.1% EC16 in 10% carrier, 1 hour pre-treatment): 10.5%±3.6
reduction in titer ([14]; 0.1% EC16 in 20% carrier): 42 fold
infectivity, % of control ([14]; 0.1% EC16 in 20% carrier, 1 hour pre-treatment, n=7): 2.4%±1.6
viral titer in comparison to control ([14]; EC16 0 to 0.1% in 2% DMSO instead of carrier): did not result in a statistically significant difference
remaining viability (infectivity), mean ([15]; 0.01% EC16 in 10% carrier, 10 minutes): 48.4%±46.4
infectivity, mean % of control ([15]; 0.01% EC16 in 20% carrier, 30 minutes): 7.6%±7.2
infectivity, mean % of control ([15]; 0.1% EC16 in 10% carrier, 10 minutes): 9.5%±1.4
infectivity, mean % of control ([15]; 0.1% EC16 in 20% carrier, 10 minutes): 12.1%±5.8
infectivity, mean % of control ([15]; 0.1% EC16 in 20% carrier, 30 minutes): 0.9%±0.7
